The text below walks through data of patent publication US20240391875A1, “ISOQUINOLINONES AND QUINOLINONES AS MODULATORS OF POLRMT” (Pretzel Therapeutics, Inc., priority 2021, published 2024).

The target of the test is POLRMT (Homo sapiens, UniProt O00411). Nature of the test: homogeneous TR-FRET assay of mitochondrial transcription (inhibition of POLRMT). It is filed as biochemical. An outline of the steps:
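Recombinant POLRMT (7.5 nM) with TFB2M, TFAM and linearized LSP plasmid template, 500 μM NTPs, pH 7.5 Mg buffer; 60 min at 37° C. Reaction stopped with EDTA/high-salt buffer, 407 bp RNA transcript detected by hybridized ATTO647/Europium-cryptate probe pair; TR-FRET 665/620 nm ratio taken as transcript yield.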
On the technique in general: TR-FRET usually uses a lanthanide donor and a delayed reading to cut background.

The mark [1] stands for this setting: isoquinolinone compounds (Table 1).

POLRMT, sequence (O00411 42-1230): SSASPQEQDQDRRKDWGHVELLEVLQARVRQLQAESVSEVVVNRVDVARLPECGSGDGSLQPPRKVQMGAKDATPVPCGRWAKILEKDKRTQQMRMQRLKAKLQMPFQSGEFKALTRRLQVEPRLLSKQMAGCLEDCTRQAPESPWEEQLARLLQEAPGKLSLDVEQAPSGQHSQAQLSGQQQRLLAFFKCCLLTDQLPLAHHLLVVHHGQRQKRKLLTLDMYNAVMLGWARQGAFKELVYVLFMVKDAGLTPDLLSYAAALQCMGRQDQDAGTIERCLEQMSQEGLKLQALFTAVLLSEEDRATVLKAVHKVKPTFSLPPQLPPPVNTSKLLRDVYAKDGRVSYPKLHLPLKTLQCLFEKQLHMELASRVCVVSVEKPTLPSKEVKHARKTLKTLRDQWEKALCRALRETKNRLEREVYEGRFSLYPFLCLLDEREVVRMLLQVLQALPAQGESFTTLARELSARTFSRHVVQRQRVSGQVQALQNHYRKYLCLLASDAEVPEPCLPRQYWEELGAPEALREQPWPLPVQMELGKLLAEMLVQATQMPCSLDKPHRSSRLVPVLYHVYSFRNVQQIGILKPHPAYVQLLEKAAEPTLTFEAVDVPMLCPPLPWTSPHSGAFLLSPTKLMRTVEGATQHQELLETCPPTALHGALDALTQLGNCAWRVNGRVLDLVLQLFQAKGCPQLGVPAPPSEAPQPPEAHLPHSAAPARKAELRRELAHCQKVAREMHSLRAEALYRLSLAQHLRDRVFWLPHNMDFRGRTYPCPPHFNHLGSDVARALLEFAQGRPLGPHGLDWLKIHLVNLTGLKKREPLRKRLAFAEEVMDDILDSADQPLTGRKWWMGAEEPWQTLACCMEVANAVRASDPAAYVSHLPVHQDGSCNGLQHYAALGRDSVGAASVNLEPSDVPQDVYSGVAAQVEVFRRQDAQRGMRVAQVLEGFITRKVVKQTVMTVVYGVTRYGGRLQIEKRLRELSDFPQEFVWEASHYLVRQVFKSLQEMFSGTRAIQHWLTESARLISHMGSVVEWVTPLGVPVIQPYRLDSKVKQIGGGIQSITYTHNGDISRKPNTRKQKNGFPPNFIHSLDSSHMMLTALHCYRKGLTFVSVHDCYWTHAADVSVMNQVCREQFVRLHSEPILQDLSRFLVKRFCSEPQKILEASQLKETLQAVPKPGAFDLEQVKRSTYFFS

Broadly, the IC50 is the point on the concentration scale where inhibition reaches its midpoint. A lower IC50 goes with greater potency. For `Cc1c(F)cccc1-c1c[nH]c(=O)c2cc(OCC(N)=O)ccc12` [Example 136, 2-((4-(3-fluoro-2-methylphenyl)-1-oxo-1,2-dihydroisoquinolin-7-yl)oxy)acetamide], half-maximal inhibition under setting [1] (IC50) required 3000 nM.

Compound `C[C@@H](Oc1ccc2c(-c3ccc(F)cc3Cl)c[nH]c(=O)c2c1)C(=O)N1CCO[C@H](C(N)=O)C1` [Example 132, (S)-4-((R)-2-((4-(2-chloro-4-fluorophenyl)-1-oxo-1,2-dihydroisoquinolin-7-yl)oxy)propanoyl)morpholine-2-carboxamide] displayed an IC50 under setting [1] of 400 nM.

Compound `Cc1ccccc1-c1c[nH]c(=O)c2cc(NC(C)C(=O)N(C)C)ccc12` (stereo not drawn) [Example 47] yielded a concentration for half-maximal inhibition (IC50) under setting [1] of 11000 nM.

Take `Cc1ccccc1-c1c[nH]c(=O)c2cc(NC(C)C(N)=O)ccc12` (stereo not drawn) [Example 67, 2-((1-oxo-4-(o-tolyl)-1,2-dihydroisoquinolin-7-yl)amino)propanamide]: under setting [1], the IC50 is 12000 nM.

Regarding `C[C@@H](Oc1ccc2c(-c3ccc(F)cc3Cl)c[nH]c(=O)c2c1)C(=O)N1CCOCC1` [Example 79, (R)-4-(2-chloro-4-fluorophenyl)-7-((1-morpholino-1-oxopropan-2-yl)oxy)isoquinolin-1(2H)-one], the IC50 under setting [1] turned out to be 50 nM.

For `Cc1ccccc1-c1cc(=O)[nH]c2cc(OC(C)C)ccc12` [Example Q10, 7-isopropoxy-4-(o-tolyl)quinolin-2(1H)-one], the IC50 (quinolinone compounds (Table 2)) was found to be 2000 nM.
